For data set [1], the target named is 5-hydroxytryptamine receptor 4 (Cavia porcellus, UniProt O70528). Format: cell membranes, Dunkin-Hartley, Striatum, Membrane. Note: in other assays of this panel Not Active means under 50% inhibition at 10 µM.
Data set [2] is described as follows: DRUGMATRIX: Sigma2 radioligand binding (ligand: [3H] Ifenprodil). Format: cell membranes, Rattus norvegicus, Wistar, Brain, Membrane. The conditions noted are these: Not Active = under 50% inhibition at 10 µM.
Data set [3] addresses T1, Vasoactive intestinal polypeptide receptor 1 (Homo sapiens, UniProt P32241).
T1 sequence (P32241 whole entry): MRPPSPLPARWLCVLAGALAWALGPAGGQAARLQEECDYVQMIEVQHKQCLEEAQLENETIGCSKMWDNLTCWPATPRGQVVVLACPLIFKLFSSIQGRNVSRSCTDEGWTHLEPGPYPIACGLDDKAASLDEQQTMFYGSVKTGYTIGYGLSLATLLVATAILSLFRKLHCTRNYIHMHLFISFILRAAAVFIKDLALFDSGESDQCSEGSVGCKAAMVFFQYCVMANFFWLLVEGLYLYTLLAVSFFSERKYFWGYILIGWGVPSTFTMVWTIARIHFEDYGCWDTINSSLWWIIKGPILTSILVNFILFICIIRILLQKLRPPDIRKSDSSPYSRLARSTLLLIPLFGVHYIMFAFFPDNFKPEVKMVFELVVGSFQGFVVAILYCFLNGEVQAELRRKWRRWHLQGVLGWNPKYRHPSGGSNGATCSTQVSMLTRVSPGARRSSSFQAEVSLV
Format: cell membranes, Membrane. The conditions noted are these: ht-29.

Data set [4] concerns the target Mu-type opioid receptor (Homo sapiens, UniProt P35372). As to the kind of experiment: DRUGMATRIX: Opiate mu (OP3, MOP) radioligand binding (ligand: [3H] Diprenorphine). Format: cell membranes, CHO-K1, Membrane. The conditions noted are these: Not Active = under 50% inhibition at 10 µM.
The target in data set [5] is Epidermal growth factor receptor (Homo sapiens, UniProt P00533). The experiment in a line: DRUGMATRIX: Protein Tyrosine Kinase, EGF Receptor enzyme inhibition (substrate: Poly(Glu:Tyr)). The conditions noted are these: insect cells; Not Active = under 50% inhibition at 10 µM. Format: cell-based, Insect cells.
Chain of Epidermal growth factor receptor (P00533 whole entry): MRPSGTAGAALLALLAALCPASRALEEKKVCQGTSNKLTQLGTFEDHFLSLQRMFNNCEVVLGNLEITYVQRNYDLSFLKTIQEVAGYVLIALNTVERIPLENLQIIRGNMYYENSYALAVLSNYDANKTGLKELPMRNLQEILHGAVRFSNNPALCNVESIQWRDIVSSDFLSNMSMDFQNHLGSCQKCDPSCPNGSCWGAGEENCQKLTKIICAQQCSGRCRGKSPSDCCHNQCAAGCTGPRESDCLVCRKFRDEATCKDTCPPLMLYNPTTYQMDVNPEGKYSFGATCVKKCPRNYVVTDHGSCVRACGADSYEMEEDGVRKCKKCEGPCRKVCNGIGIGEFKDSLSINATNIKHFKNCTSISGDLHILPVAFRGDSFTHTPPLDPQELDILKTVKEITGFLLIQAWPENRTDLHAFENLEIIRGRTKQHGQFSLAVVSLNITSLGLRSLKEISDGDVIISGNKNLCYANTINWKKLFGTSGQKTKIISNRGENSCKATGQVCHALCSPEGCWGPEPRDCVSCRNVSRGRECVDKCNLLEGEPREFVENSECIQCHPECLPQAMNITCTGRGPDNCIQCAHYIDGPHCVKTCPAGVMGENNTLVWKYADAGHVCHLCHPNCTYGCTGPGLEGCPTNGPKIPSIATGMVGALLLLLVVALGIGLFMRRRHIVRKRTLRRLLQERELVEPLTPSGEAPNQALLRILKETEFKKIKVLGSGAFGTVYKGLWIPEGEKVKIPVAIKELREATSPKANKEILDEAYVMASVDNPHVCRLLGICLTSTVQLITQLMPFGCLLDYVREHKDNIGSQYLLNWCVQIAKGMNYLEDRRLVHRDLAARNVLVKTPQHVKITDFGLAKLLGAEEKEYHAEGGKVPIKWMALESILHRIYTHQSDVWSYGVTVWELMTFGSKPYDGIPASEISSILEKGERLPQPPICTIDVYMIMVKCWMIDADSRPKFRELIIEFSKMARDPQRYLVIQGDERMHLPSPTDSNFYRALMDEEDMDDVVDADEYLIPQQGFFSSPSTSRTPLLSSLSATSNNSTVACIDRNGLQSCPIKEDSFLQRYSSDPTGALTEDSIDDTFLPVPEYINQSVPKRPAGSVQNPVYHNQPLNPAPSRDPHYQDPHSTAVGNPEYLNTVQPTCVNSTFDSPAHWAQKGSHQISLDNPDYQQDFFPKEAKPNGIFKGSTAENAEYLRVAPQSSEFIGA
The target in data set [6] is Cytochrome P450 3A4 (Homo sapiens, UniProt P08684). The conditions noted are these: bti-tn-5b1-4. Note: in other assays of this panel Not Active means under 50% inhibition at 10 µM.
Chain of Cytochrome P450 3A4 (P08684 whole entry): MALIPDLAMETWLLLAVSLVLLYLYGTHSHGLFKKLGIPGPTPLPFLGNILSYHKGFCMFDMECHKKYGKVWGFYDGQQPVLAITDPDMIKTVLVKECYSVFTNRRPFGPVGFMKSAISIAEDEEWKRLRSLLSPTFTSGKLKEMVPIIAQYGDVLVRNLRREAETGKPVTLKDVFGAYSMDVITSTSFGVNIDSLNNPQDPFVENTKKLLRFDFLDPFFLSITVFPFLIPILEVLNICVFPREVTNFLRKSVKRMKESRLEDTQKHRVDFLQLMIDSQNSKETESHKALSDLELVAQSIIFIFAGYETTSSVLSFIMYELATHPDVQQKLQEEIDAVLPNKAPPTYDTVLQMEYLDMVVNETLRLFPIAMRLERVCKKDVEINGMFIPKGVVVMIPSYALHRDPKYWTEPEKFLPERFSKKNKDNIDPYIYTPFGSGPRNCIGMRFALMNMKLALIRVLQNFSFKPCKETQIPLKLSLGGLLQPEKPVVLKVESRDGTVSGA

Chain of Mu-type opioid receptor (P35372 whole entry): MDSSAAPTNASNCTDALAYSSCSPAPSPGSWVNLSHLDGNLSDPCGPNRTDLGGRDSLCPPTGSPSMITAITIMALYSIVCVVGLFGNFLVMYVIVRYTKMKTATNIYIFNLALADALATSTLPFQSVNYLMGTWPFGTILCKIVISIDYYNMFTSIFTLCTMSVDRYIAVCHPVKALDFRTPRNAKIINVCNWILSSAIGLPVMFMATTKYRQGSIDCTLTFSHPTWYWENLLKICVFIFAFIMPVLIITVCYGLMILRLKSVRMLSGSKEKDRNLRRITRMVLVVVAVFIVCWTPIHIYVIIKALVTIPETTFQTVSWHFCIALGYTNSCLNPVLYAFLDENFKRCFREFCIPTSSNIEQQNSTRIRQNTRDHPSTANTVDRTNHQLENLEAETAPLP
Chain of 5-hydroxytryptamine receptor 4 (O70528 whole entry): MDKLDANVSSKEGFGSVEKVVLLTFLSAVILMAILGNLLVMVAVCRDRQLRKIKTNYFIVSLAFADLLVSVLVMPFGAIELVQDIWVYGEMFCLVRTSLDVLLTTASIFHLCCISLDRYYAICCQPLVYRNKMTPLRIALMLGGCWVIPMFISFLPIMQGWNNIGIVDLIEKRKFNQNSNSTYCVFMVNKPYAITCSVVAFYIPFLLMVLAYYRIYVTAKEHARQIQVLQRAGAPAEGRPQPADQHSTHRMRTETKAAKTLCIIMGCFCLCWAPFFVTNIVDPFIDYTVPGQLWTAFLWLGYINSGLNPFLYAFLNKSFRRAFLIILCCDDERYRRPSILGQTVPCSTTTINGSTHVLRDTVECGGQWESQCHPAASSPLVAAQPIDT

For orientation: IC50 means the concentration needed to halve the response being measured. A word on the Ki: it is the equilibrium dissociation constant of an inhibitor or competing ligand from its target. Low values mean higher affinity, high ones lower affinity. `O=C(O)CCCc1cccs1`: the IC50 result in data set [1], in data set [2], in data set [3], in data set [4] (cho-k1), in data set [5] and in data set [6] was “Not Active” in each case. The Ki entry in data set [2] and in data set [6] was “Not Active” throughout.

For `COc1ccccc1N`, the IC50 result in data set [1], in data set [2], in data set [3], in data set [4] (cho-k1), in data set [5] and in data set [6] was “Not Active” throughout. In addition, the inhibition constant Ki result in data set [2] and in data set [6] was “Not Active” throughout.

`O=C(c1ccccc1F)N1CCC(Cc2ccccc2)CC1`: the half-maximal inhibitory concentration (IC50) entry in data set [1], in data set [2], in data set [3], in data set [4] (cho-k1), in data set [5] and in data set [6] was “Not Active” each time. Also, the inhibition constant (Ki) result in data set [2] and in data set [6] was “Not Active” in each case.

Take `CC(O)COC[C@H]1O[C@@H]2O[C@H]3[C@H](O)[C@@H](O)[C@@H](O[C@H]4[C@H](O)[C@@H](O)[C@@H](O[C@H]5[C@H](O)[C@@H](O)[C@@H](O[C@H]6[C@H](O)[C@@H](O)[C@@H](O[C@H]7[C@H](O)[C@@H](O)[C@@H](O[C@H]8[C@H](O)[C@@H](O)[C@@H](O[C@H]1[C@H](O)[C@H]2O)O[C@@H]8COCC(C)O)O[C@@H]7COCC(C)O)O[C@@H]6COCC(C)O)O[C@@H]5COCC(C)O)O[C@@H]4COCC(C)O)O[C@@H]3COCC(C)O` (stereo partly drawn) [2-HYDROXYPROPYL-BETA-CYCLODEXTRIN]: the concentration for half-maximal inhibition (IC50) result in data set [1], in data set [2], in data set [3], in data set [4] (cho-k1), in data set [5] and in data set [6] was “Not Active” in each case. Moreover, the Ki entry in data set [2] and in data set [6] was “Not Active” throughout.

`NC(=O)c1cccc(N)c1` [3-AMINOBENZAMIDE]: the IC50 entry in data set [1], in data set [2], in data set [3], in data set [4] (cho-k1), in data set [5] and in data set [6] was “Not Active” in each case. Further, the Ki result in data set [2] and in data set [6] was “Not Active” throughout.

Turning to `C[C@H]1O[C@H](O[C@H]2[C@H](O)[C@@H](O)[C@@H](O[C@H]3[C@H](O)[C@@H](O)C(O)O[C@@H]3CO)O[C@@H]2CO)[C@H](O)[C@@H](O)[C@@H]1N[C@H]1C=C(CO)[C@@H](O)[C@H](O)[C@H]1O` (stereo partly specified) [ACARBOSE], the IC50 result in data set [1], in data set [2], in data set [3], in data set [4] (cho-k1), in data set [5] and in data set [6] was “Not Active” each time. Also, the Ki entry in data set [2] and in data set [6] was “Not Active” each time.

`CC[C@H]1[C@@H]2C[C@H]3[C@@H]4N(C)c5ccccc5[C@]45C[C@@H]([C@@H]2[C@H]5O)N3[C@@H]1O` [AJMALINE]: the IC50 entry in data set [1], in data set [2], in data set [3], in data set [4] (cho-k1), in data set [5] and in data set [6] was “Not Active” each time. For the same molecule, the inhibition constant Ki entry in data set [2] and in data set [6] was “Not Active” each time.

As for `NCCCNCCSP(=O)(O)O` [AMIFOSTINE], the IC50 result in data set [1], in data set [2], in data set [3], in data set [4] (cho-k1), in data set [5] and in data set [6] was “Not Active” throughout. Further, the inhibition constant (Ki) entry in data set [2] and in data set [6] was “Not Active” in each case.

`CN(C)CCC=C1c2ccccc2CCc2ccccc21` [AMITRIPTYLINE]: the IC50 entry in data set [1], in data set [2], in data set [3], in data set [4] (cho-k1), in data set [5] and in data set [6] was “Not Active” in each case. The Ki result in data set [2] and in data set [6] was “Not Active” each time.

For the molecule `CC(=O)Oc1ccccc1C(=O)O` [ASPIRIN], the half-maximal inhibitory concentration (IC50) result in data set [1], in data set [2], in data set [3], in data set [4] (cho-k1), in data set [5] and in data set [6] was “Not Active” throughout. The inhibitory constant (Ki) entry in data set [2] and in data set [6] was “Not Active” throughout.

In the case of `CC(=O)OC[C@H]1O[C@@H](n2ncc(=O)[nH]c2=O)[C@H](OC(C)=O)[C@@H]1OC(C)=O` [AZARIBINE], the 50% inhibitory concentration (IC50) entry in data set [1], in data set [2], in data set [3], in data set [4] (cho-k1), in data set [5] and in data set [6] was “Not Active” each time. For the same molecule, the Ki entry in data set [2] and in data set [6] was “Not Active” in each case.

For the molecule `C[C@H]1[C@H](NC(=O)/C(=N\OC(C)(C)C(=O)O)c2csc(N)n2)C(=O)N1S(=O)(=O)O` [AZTREONAM], the half-inhibitory concentration (IC50) result in data set [1], in data set [2], in data set [3], in data set [4] (cho-k1), in data set [5] and in data set [6] was “Not Active” throughout. Further, the inhibitory constant (Ki) entry in data set [2] and in data set [6] was “Not Active” in each case.

As for `O=C(O)CCNC(=O)c1ccc(/N=N/c2ccc(O)c(C(=O)O)c2)cc1` [BALSALAZIDE], the IC50 entry in data set [1], in data set [2], in data set [3], in data set [4] (cho-k1), in data set [5] and in data set [6] was “Not Active” throughout. Besides, the Ki result in data set [2] and in data set [6] was “Not Active” each time.

Take `ClC(Cl)(Cl)Cl` [CARBON TETRACHLORIDE]: the 50% inhibitory concentration (IC50) entry in data set [1], in data set [2], in data set [3], in data set [4] (cho-k1), in data set [5] and in data set [6] was “Not Active” each time. The inhibition constant (Ki) result in data set [2] and in data set [6] was “Not Active” throughout.

For `CC(C)C[C@H]1C(=O)N2CCC[C@H]2[C@]2(O)O[C@](NC(=O)[C@@H]3C=C4c5cccc6[nH]cc(c56)C[C@H]4N(C)C3)(C(C)C)C(=O)N12` [ERGOCRYPTINE], the IC50 result is “Not Active” in data set [1]; “Not Active” in data set [2]; “Not Active” in data set [3]; 2430 nM in data set [4] (read-out: IC50); “Not Active” in data set [5]. In addition, the figures for the inhibitory constant (Ki) result in data set [2] and in data set [4] were “Not Active” and 985 nM, respectively.

As for `CC(C)(C(=O)O)c1ccc(C(O)CCCN2CCC(C(O)(c3ccccc3)c3ccccc3)CC2)cc1` (stereo unspecified) [FEXOFENADINE], the IC50 result in data set [1], in data set [2], in data set [3], in data set [4] (cho-k1) and in data set [5] was “Not Active” in each case. Also, in data set [2], the Ki entry is given as “Not Active”.

Consider `CC(=O)OCC(=O)[C@@]12OC(C)(C)O[C@@H]1C[C@H]1[C@@H]3C[C@H](F)C4=CC(=O)C=C[C@]4(C)[C@@]3(F)[C@@H](O)C[C@@]12C` [FLUOCINONIDE], for which the IC50 result in data set [1], in data set [2], in data set [3], in data set [4] (cho-k1) and in data set [5] was “Not Active” throughout. Besides, the Ki entry in data set [2] was “Not Active”.

With `N[C@@H](Cn1ccc(=O)c(O)c1)C(=O)O` [L-MIMOSINE], the IC50 entry in data set [1], in data set [2], in data set [3], in data set [4] (cho-k1) and in data set [5] was “Not Active” throughout. Further, the Ki entry in data set [2] is listed as “Not Active”.

In the case of `C[C@H]1COc2c(N3CCN(C)CC3)c(F)cc3c(=O)c(C(=O)O)cn1c23.C[C@H]1COc2c(N3CCN(C)CC3)c(F)cc3c(=O)c(C(=O)O)cn1c23.O` [LEVOFLOXACIN], the IC50 entry in data set [1], in data set [2], in data set [3], in data set [4] (cho-k1) and in data set [5] was “Not Active” throughout. Moreover, the Ki entry in data set [2] was “Not Active”.

In the case of `C[C@@H]1C/C=C/C=C/C=C/C=C/[C@H](O[C@@H]2O[C@H](C)[C@@H](O)[C@H](N)[C@@H]2O)C[C@@H]2O[C@](O)(C[C@@H](O)C[C@H]3O[C@@H]3/C=C/C(=O)O1)C[C@H](O)[C@H]2C(=O)O` [NATAMYCIN], the IC50 entry in data set [1], in data set [2], in data set [3], in data set [4] (cho-k1) and in data set [5] was “Not Active” each time. Further, in data set [2], the Ki result is on record as “Not Active”.

As for `N=C(N)c1ccc(OCCCCCOc2ccc(C(=N)N)cc2)cc1` [PENTAMIDINE], the half-inhibitory concentration (IC50) result in data set [1], in data set [2], in data set [3], in data set [4] (cho-k1) and in data set [5] was “Not Active” in each case. The inhibition constant (Ki) result in data set [2] is on record as “Not Active”.

Regarding `NNCCc1ccccc1` [PHENELZINE], the half-maximal inhibitory concentration (IC50) entry in data set [1], in data set [2], in data set [3], in data set [4] (cho-k1) and in data set [5] was “Not Active” throughout. Further, in data set [2], the Ki result is reported as “Not Active”.
